Measurements reported in patent publication US10669258B2, “3-sulfonyl-5-aminopyridine-2,4-diol APJ agonists” (BRISTOL-MYERS SQUIBB COMPANY, priority 2016, dated 2020).

Molecular target: T1, human APJ receptor (Homo sapiens, UniProt P35414)
T1 construct: expressed in transfected cells; host or cells: HEK293
T1 sequence (P35414 1-380): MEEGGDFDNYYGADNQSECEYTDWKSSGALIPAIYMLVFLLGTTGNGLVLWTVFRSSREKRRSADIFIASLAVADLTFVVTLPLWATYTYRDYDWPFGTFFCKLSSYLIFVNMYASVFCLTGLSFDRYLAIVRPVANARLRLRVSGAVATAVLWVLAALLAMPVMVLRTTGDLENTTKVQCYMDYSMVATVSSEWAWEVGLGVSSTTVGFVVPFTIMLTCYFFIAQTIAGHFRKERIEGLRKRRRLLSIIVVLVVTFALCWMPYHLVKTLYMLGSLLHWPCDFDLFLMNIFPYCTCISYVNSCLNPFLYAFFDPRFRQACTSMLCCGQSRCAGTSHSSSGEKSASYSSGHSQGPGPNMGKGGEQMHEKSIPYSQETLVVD
Experiment: Intracellular cAMP accumulation assay (APJ hcAMP, HTRF)
Assay type: cell-based
Details: HEK293 cells stably expressing human APJ receptor; inhibition of forskolin-mediated cAMP production; Table 1; read-out: hAPJ cAMP EC50 Potency range
Summary of the method: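 Inhibition of forskolin (2 μM)-driven cAMP, with […], measured by HTRF after 30 min room-temperature compound exposure of stably transfected HEK293 cells. cAMP read from a standard curve; variable-slope fit gives EC50, and maximal inhibition is normalised to (Pyr1)apelin-13 as 100%.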

| SMILES | EC50 |
| --- | --- |
| CCCCc1nc(O)c(S(=O)(=O)c2ccc(-c3cccnc3C)cc2)c(O)c1N(CC)c1ccccc1 [Example 079, 6-butyl-5-(ethyl(phenyl)amino)-3-((4-(2-methylpyridin-3-yl)phenyl)sulfonyl)pyridine-2,4-diol] | 0.01 to 10 nM |
| CCCCc1nc(O)c(S(=O)(=O)c2ccc(-c3ccncc3C)cc2)c(O)c1N(C)c1ccc(Cl)cc1 [Example 108, 6-butyl-5-((4-chlorophenyl)(methyl)amino)-3-((4-(3-methylpyridin-4-yl)phenyl)sulfonyl)pyridine-2,4-diol] | 0.01 to 10 nM |
| CCCCc1nc(O)c(S(=O)(=O)c2ccc(-c3ccccc3C(=O)NC)cc2)c(O)c1N1CCCc2ccccc21 [Example 061, 4′-((6-butyl-5-(3,4-dihydroquinolin-1(2H)-yl)-2,4-dihydroxypyridin-3-yl)sulfonyl)-N-methyl-[1,1′-biphenyl]-2-carboxamide] | 0.01 to 10 nM |
| CCCCc1nc(O)c(C(=O)N2CC[C@H](c3ccccc3)C2)c(O)c1N(CCC)c1ccccc1 [Example 069, (R)-(6-butyl-2,4-dihydroxy-5-(phenyl(propyl)amino)pyridin-3-yl)(3-phenylpyrrolidin-1-yl)methanone] | 10 to 100 nM |
| CCCCc1nc(O)c(S(=O)(=O)c2ccc(-c3ccnc(F)c3C)cc2)c(O)c1N(C)c1ccc(OC)cc1 [Example 038, 6-butyl-3-((4-(2-fluoro-3-methylpyridin-4-yl)phenyl)sulfonyl)-5-((4-methoxyphenyl)(methyl)amino)pyridine-2,4-diol] | 0.01 to 10 nM |
| CCCCc1nc(O)c(S(=O)(=O)c2ccc(-n3cc(Cl)ccc3=O)cc2)c(O)c1N(C)c1ccccc1 [Example 018, 1-(4-((6-butyl-2,4-dihydroxy-5-(methyl(phenyl)amino)pyridin-3-yl)sulfonyl)phenyl)-5-chloropyridin-2(1H)-one] | 0.01 to 10 nM |
| CCCCc1nc(O)c(S(=O)(=O)c2ccc(-c3ccccc3C(N)=O)cc2)c(O)c1N(C)c1ccccc1 [Example 065, 4′-((6-butyl-2,4-dihydroxy-5-(methyl(phenyl)amino)pyridin-3-yl)sulfonyl)-[1,1′-biphenyl]-2-carboxamide] | 0.01 to 10 nM |
| CCN(c1ccccc1)c1c(-c2cccc(C)c2)nc(O)c(S(=O)(=O)c2ccc(-c3ccc(F)nc3C)cc2)c1O [Example 114, 5-(ethyl(phenyl)amino)-3-((4-(6-fluoro-2-methylpyridin-3-yl)phenyl)sulfonyl)-6-(m-tolyl)pyridine-2,4-diol] | 0.01 to 10 nM |
| CCCCc1nc(O)c(S(=O)(=O)c2ccc(-c3ccc(F)nc3C)cc2)c(O)c1N(C)c1cccc(C)c1 [Example 095, 6-butyl-3-((4-(6-fluoro-2-methylpyridin-3-yl)phenyl)sulfonyl)-5-(methyl(m-tolyl)amino)pyridine-2,4-diol] | 10 to 100 nM |
| CCCCc1nc(O)c(S(=O)(=O)c2ccc(-c3ccncc3C)cc2)c(O)c1N1CCc2ccccc21 [Example 013, 6-butyl-5-(indolin-1-yl)-3-((4-(3-methylpyridin-4-yl)phenyl)sulfonyl)pyridine-2,4-diol] | 0.01 to 10 nM |
| CCN(c1ccccc1)c1c(-c2ccn(C)n2)nc(O)c(S(=O)(=O)c2ccc(-c3ccccc3C(=O)NC)cc2)c1O [Example 056, 4′-((5-(ethyl(phenyl)amino)-2,4-dihydroxy-6-(1-methyl-1H-pyrazol-3-yl)pyridin-3-yl)sulfonyl)-N-methyl-[1,1′-biphenyl]-2-carboxamide] | 0.01 to 10 nM |
| CCCCc1nc(O)c(S(=O)(=O)c2ccc(-n3cc(C)ccc3=O)cc2)c(O)c1N(C)c1cccc(C)c1 [Example 099, 1-(4-((6-butyl-2,4-dihydroxy-5-(methyl(m-tolyl)amino)pyridin-3-yl)sulfonyl)phenyl)-5-methylpyridin-2(1H)-one] | 10 to 100 nM |

Results, then the compound that gave them:

| EC50 | SMILES |
| --- | --- |
| 0.01 to 10 nM | CCCCc1nc(O)c(S(=O)(=O)c2ccc(-c3ccncc3C)cc2)c(O)c1N(C)c1ccccc1C [Example 203, 6-butyl-5-(methyl(o-tolyl)amino)-3-((4-(3-methypyridin-4-yl)phenyl)sulfonyl)pyri-dine-2,4-diol] |
| 0.01 to 10 nM | CCN(c1ccccc1)c1c(-c2cnc(C)s2)nc(O)c(S(=O)(=O)c2ccc(-c3ccncc3C)cc2)c1O [Example 187, 5-(ethyl(phenyl)amino)-3-((4-(3-methylpyridin-4-yl)phenyl)sulfonyl)-6-(2-methylthiazol-5-yl)pyridine-2,4-diol] |
| 10 to 100 nM | CCCCc1nc(O)c(S(=O)(=O)c2ccc(-c3ccncc3C)cc2)c(O)c1N1CCCCc2ccccc21 [Example 169, 6-butyl-3-((4-(3-methylpyridin-4-yl)phenyl)sulfonyl)-5-(2,3,4,5-tetrahydro-1H-benzo[b]azepin-1-yl)pyridine-2,4-diol] |
| 0.01 to 10 nM | CCCCc1nc(O)c(S(=O)(=O)c2ccc(-c3ccccc3C(N)=O)cc2)c(O)c1N(C)c1ccccc1F [Example 174, 4′-((6-butyl-5-((2-fluorophenyl)(methyl)a-mino)-2,4-dihydroxypyridin-3-yl)sulfonyl)-[1,1′-biphenyl]-2-carboxamide] |
| 0.01 to 10 nM | CCCCc1nc(O)c(S(=O)(=O)c2ccc(-c3ccccc3C(=O)NC)cc2)c(O)c1N(CC)c1cc(C)cc(C)c1 [Example 182, 4′-((6-butyl-5-((3,5-dimethyphenyl)(ethyl)a-mino)-2,4-dihydroxypyridin-3-yl)sulfonyl)-N-methyl-[1,1′-biphenyl]-2-carboxamide] |
| 0.01 to 10 nM | CCN(c1ccccc1)c1c(-c2cnn(C)c2)nc(O)c(S(=O)(=O)c2ccc(-c3ccccc3C(=O)NC)cc2)c1O [Example 151, 4′-((5-(ethyl(phenyl)amino)-2,4-dihydroxy-6-(1-methyl-1H-pyrazol-4-yl)pyridin-3-yl)sulfonyl)-N-methyl-[1,1′-biphenyl]-2-carboxamide] |
| 10 to 100 nM | CCN(c1ccccc1)c1c(-c2cccc(C)c2)nc(O)c(S(=O)(=O)c2ccc(Br)cc2)c1O [Example 131, 3-((4-bromophenyl)sulfonyl)-5-(ethyl(phenyl)amino)-6-(m-tolyl)pyridine-2,4-diol] |
| 0.01 to 10 nM | CCN(c1ccccc1)c1c(-c2cnc(C)s2)nc(O)c(S(=O)(=O)c2ccc(-c3ccnc(F)c3C)cc2)c1O [Example 191, 5-(ethyl(phenyl)amino)-3-((4-(2-fluoro-3-methylpyridin-4-yl)phenyl)sulfonyl)-6-(2-methylthiazol-5-yl)pyridine-2,4-diol] |
| 0.01 to 10 nM | CCCCc1nc(O)c(S(=O)(=O)c2ccc(-c3ccnc(F)c3C)cc2)c(O)c1N(C)c1ccccc1C [Example 193, 6-butyl-3-((4-(2-fluoro-3-methypyridin-4-yl)phenyl)sulfonyl)-5-(methyl(o-tolyl)amino)pyridine-2,4-diol] |
| 0.01 to 10 nM | Cc1nc(F)ccc1-c1ccc(S(=O)(=O)c2c(O)nc(-c3ccn(C)n3)c(N(c3ccccc3)C(C)C)c2O)cc1 [Example 157, 3-((4-(6-fluoro-2-methylpyridin-3-yl)phenyl)sulfonyl)-5-(isopropyl(phen-yl)amino)-6-(1-methyl-1H-pyrazol-3-yl)pyridine-2,4-diol] |
| 10 to 100 nM | CCCCc1nc(O)c(S(=O)(=O)c2ccc(-c3ccnc(F)c3C)cc2)c(O)c1N1CCCCC1c1ccccc1 (centres unmarked) [Example 128, 6-butyl-3-((4-(2-fluoro-3-methylpyridin-4-yl)phenyl)sulfonyl)-5-(2-phenylpiperidin-1-yl)pyridine-2,4-diol] |
| 0.01 to 10 nM | CCCCc1nc(O)c(S(=O)(=O)c2ccc(-c3ccnc(F)c3C)cc2)c(O)c1N(C)c1ccccc1F [Example 125, 6-butyl-3-((4-(2-fluoro-3-methylpyridin-4-yl)phenyl)sulfonyl)-5-((2-fluorophenyl)(methyl)amino)pyridine-2,4-diol] |
| 0.01 to 10 nM | CCN(c1cccc(C#N)c1)c1c(-c2ccn(C)n2)nc(O)c(S(=O)(=O)c2ccc(-c3ccccc3C(=O)NC3CC3)cc2)c1O [Example 218, 4′-((5-((3-cyanophenyl)(ethyl)ami-no)-2,4-dihydroxy-6-(1-methyl-1H-pyrazol-3-yl)pyridin-3-y)sulfonyl)-N-cyclopropyl-[1,1′-biphenyl]-2-carboxamide] |

Same assay, conditions: hAPJ cAMP EC50 Potency range, HEK293 cells stably expressing human APJ receptor; inhibition of forskolin-mediated cAMP production; Table 1

| SMILES | EC50 |
| --- | --- |
| CCCCc1nc(O)c(C(=O)N2CC[C@H](c3ccccc3)C2)c(O)c1N(C)c1ccccc1 [Example 008, (R)-(6-butyl-2,4-dihydroxy-5-(methyl(phenyl)amino)pyridin-3-yl)(3-phenylpyrrolidin-1-yl)methanone] | 10 to 100 nM |
| CCCCc1nc(O)c(C(=O)N2CC[C@@H](c3ccccc3)C2)c(O)c1N1CCCc2ccccc21 [Example 019, (S)-(6-butyl-5-(3,4-dihydroquinolin-1(2H)-yl)-2,4-dihydroxypyridin-3-yl)(3-phenylpyrrolidin-1-yl)methanone] | 10 to 100 nM |
| CCCCc1nc(O)c(C(=O)N2CC[C@@H](c3ccccc3)C2)c(O)c1N(C)c1ccc(OC)cc1 [Example 036, (S)-(6-butyl-2,4-dihydroxy-5-((4-methoxyphenyl)(methyl)amino)pyridin-3-yl)(3-phenylpyrrolidin-1-yl)methanone] | 10 to 100 nM |
| CCN(c1ccccc1)c1c(CC2CC2)nc(O)c(C(=O)N2CCC(c3ncc(F)cc3F)C2)c1O (centres unmarked) [Example 053, (6-(cyclopropylmethyl)-5-(ethyl(phenyl)amino)-2,4-dihydroxypyridin-3-yl)(3-(3,5-difluoropyridin-2-yl)pyrrolidin-1-yl)methanone] | 10 to 100 nM |
